Experimental data as given in patent US8338425B2, “Heterocyclic kinase inhibitors” (Concert Pharmaceuticals, Inc., priority 2007, dated 2012).
Read-outs that look alike come from different tables or passages of the source.

Assay: Human liver microsome (HLM) metabolic stability assay
Type: in vitro ADME
Settings: pooled human liver microsomes, HLM 0.5 mg/mL, test compound 0.5 μM, NADPH, 37° C.
Method: Microsomal Assay: Human liver microsomes (20 mg/mL) were obtained from Xenotech, LLC (Lenexa, Kans.). β-nicotinamide adenine dinucleotide phosphate, reduced form (NADPH), magnesium chloride (MgCl2), and dimethyl sulfoxide (DMSO) were purchased from Sigma-Aldrich. The incubation mixtures were prepared according to Table 2:
Determination of Metabolic Stability: Two aliquots of this reaction mixture were used for a compound of this invention. The aliquots were incubated in a shaking water bath at 37° C. for 3 minutes. The test compound was then added into each aliquot at a final concentration of 0.5 μM. The reaction was initiated by the addition of cofactor (NADPH) into one aliquot (the other aliquot lacking NADPH served as the negative control). Both aliquots were then incubated in a shaking water bath at 37° C. Fifty microliters (50 μL) of the incubation mixtures were withdrawn in triplicate from each aliquot at 0, 5, 10, 20, and 30 minutes and combined with 50 μL of ice-cold acetonitrile to terminate the reaction. The same procedure was followed for dasatinib and for the positive control, 7-ethoxycoumarin. Testing was done in triplicate.
Data analysis: The in vitro half-lives (t1/2s) for test compounds were calculated from the slopes of the linear regression of % parent remaining (ln) vs incubation time relationship. in vitro t1/2=0.693/k
k=−[slope of linear regression of % parent remaining(ln) vs incubation time]
Data analysis was performed using Microsoft Excel Software.
The metabolic stability of compounds of Formula I was tested using pooled liver microsomal incubations. Full scan LC-MS analysis was then performed to detect major metabolites. Samples of the test compounds, exposed to pooled human liver microsomes, were analyzed using HPLC-MS (or MS/MS) detection. For determining metabolic stability, multiple reaction monitoring (MRM) was used to measure the disappearance of the test compounds. For metabolite detection, Q1 full scans were used as survey scans to detect the major metabolites.

[1] = 0-30 minutes, Experiment 1, read-out: t1/2 (min) Experiment 1
[2] = average of Experiments 1 and 2, read-out: t1/2 (min) Average
[3] = 0-30 minutes, Experiment 2, read-out: t1/2 (min) Experiment 2

SMILES	half-life at 0.5 μM [1] [min]	half-life at 0.5 μM [2] [min]	half-life at 0.5 μM [3] [min]
[2H]C([2H])(O)CN1CCN(c2cc(Nc3ncc(C(=O)Nc4c(Cl)cccc4C([2H])([2H])[2H])s3)nc(C)n2)CC1 [Compound 101, N-(2-Chloro-6-(methyl-d3)phenyl)-2-(6-(4-(2,2-d2-2-hydroxyethyl)piperazin-1-yl)-2-methylpyrimidin-4-ylamino)thiazole-5-carboxamide]	17.7	17.9	
[2H]C([2H])([2H])c1cccc(Cl)c1NC(=O)c1cnc(Nc2cc(N3CCN(C([2H])([2H])C([2H])([2H])O)CC3)nc(C)n2)s1 [Compound 103, N-(2-Chloro-6-(methyl-d3)phenyl)-2-(6-(4-(1,1,2,2-d4-2-hydroxyethyl)piperazin-1-yl)-2-methylpyrimidin-4-ylamino)thiazole-5-carboxamide]	19.4	18.3	17.2
[2H]C([2H])([2H])c1cccc(Cl)c1NC(=O)c1cnc(Nc2cc(N3C([2H])([2H])C([2H])([2H])N(C([2H])([2H])C([2H])([2H])O)C([2H])([2H])C3([2H])[2H])nc(C)n2)s1 [Compound 115, N-(2-Chloro-6-(methyl-d3)phenyl)-2-(6-(4-(1,1,2,2-d4-2-hydroxyethyl)-(piperazin-d8)-1-yl)-2-methylpyrimidin-4-ylamino)thiazole-5-carboxamide]	17.3	17.8	18.2

Further lines, results first:

half-life at 0.5 μM [1] [min]	half-life at 0.5 μM [2] [min]	half-life at 0.5 μM [3] [min]	SMILES
19.6	19.1	18.5	[2H]C1([2H])N(CCO)C([2H])([2H])C([2H])([2H])N(c2cc(Nc3ncc(C(=O)Nc4c(C)cccc4Cl)s3)nc(C)n2)C1([2H])[2H] [Compound 117, N-(2-Chloro-6-methylphenyl)-2-(6-(4-(2-hydroxyethyl)-(piperazin-d8)-1-yl)-2-methylpyrimidin-4-ylamino)thiazole-5-carboxamide]
16	15.3	14.6	Cc1nc(Nc2ncc(C(=O)Nc3c(C)cccc3Cl)s2)cc(N2CCN(CCO)CC2)n1 [Dasatinib, 2-{6-[4-(2-Hydroxy-ethyl)-piperazin-1-yl]-2-methyl-pyrimidin-4-ylamino}-thiazole-5-carboxylic acid (2-chloro-6-methyl-phenyl)-amide, reference compound]
